ChEMBL document CHEMBL1629662, “Antimicrobial activity of prulifloxacin tested against a worldwide collection of gastroenteritis-producing pathogens, including those causing traveler's diarrhea” (2009)

Key:
Aeromonas veronii [1] = experiment: Antibacterial activity against Aeromonas veronii by broth microdilution method; assay type: functional
Escherichia coli [2] = experiment: Antibacterial activity against Escherichia coli assessed as percent susceptible isolates by broth microdilution method; assay type: functional
Aeromonas hydrophila [3] = experiment: Antibacterial activity against Aeromonas hydrophila assessed as percent susceptible isolates by broth microdilution method; assay type: functional
[4] = test system: Yersinia pseudotuberculosis; experiment: Antibacterial activity against Yersinia pseudotuberculosis assessed as percent susceptible isolates by broth microdilution method; assay type: functional
Vibrio vulnificus = experiment: Antibacterial activity against Vibrio vulnificus by broth microdilution method; assay type: functional
[5] = Antibacterial activity against Salmonella enterica serovar Virchow by broth microdilution method; assay type: functional, Salmonella enterica subsp. enterica serovar Virchow
Shigella dysenteriae [6] = experiment: Antibacterial activity against Shigella dysenteriae assessed as percent susceptible isolates by broth microdilution method; assay type: functional
Salmonella enteritidis [7] = experiment: Antibacterial activity against Salmonella enterica serovar Enteritidis assessed as percent susceptible isolates by broth microdilution method; assay type: functional, Salmonella enterica subsp. enterica serovar Enteritidis; settings: pooled result: one value given for 5 cell lines, strains, targets or settings
Shigella sonnei [8] = experiment: Antibacterial activity against Shigella sonnei assessed as percent resistant isolates by broth microdilution method; assay type: functional; settings: pooled result: one value given for 4 cell lines, strains, targets or settings
Salmonella typhi [9] = experiment: Antibacterial activity against Salmonella enterica serovar Typhi by broth microdilution method; assay type: functional, Salmonella enterica subsp. enterica serovar Typhi
Campylobacter jejuni = experiment: Antibacterial activity against Campylobacter jejuni by broth microdilution method; assay type: functional
Aeromonas hydrophila [10] = experiment: Antibacterial activity against Aeromonas hydrophila assessed as percent resistant isolates by broth microdilution method; assay type: functional
Shigella dysenteriae [11] = experiment: Antibacterial activity against Shigella dysenteriae by broth microdilution method; assay type: functional
Plesiomonas shigelloides [12] = experiment: Antibacterial activity against Plesiomonas shigelloides by broth microdilution method; assay type: functional
Vibrio parahaemolyticus = experiment: Antibacterial activity against Vibrio parahaemolyticus by broth microdilution method; assay type: functional
Vibrio fluvialis = experiment: Antibacterial activity against Vibrio fluvialis by broth microdilution method; assay type: functional
Shigella sonnei [13] = experiment: Antibacterial activity against Shigella sonnei by broth microdilution method; assay type: functional
Salmonella paratyphi [14] = experiment: Antibacterial activity against Salmonella enterica serovar Paratyphi by broth microdilution method; assay type: functional, Salmonella enterica subsp. enterica serovar Paratyphi A
Salmonella typhimurium [15] = experiment: Antibacterial activity against Salmonella enterica serovar Typhimurium assessed as percent resistant isolates by broth microdilution method; assay type: functional, Salmonella enterica subsp. enterica serovar Typhimurium; settings: pooled result: one value given for 8 cell lines, strains, targets or settings
Shigella boydii [16] = experiment: Antibacterial activity against Shigella boydii assessed as percent susceptible isolates by broth microdilution method; assay type: functional; settings: pooled result: one value given for 3 cell lines, strains, targets or settings
Aeromonas sobria [17] = experiment: Antibacterial activity against Aeromonas sobria assessed as percent susceptible isolates by broth microdilution method; assay type: functional
[18] = Antibacterial activity against Salmonella enterica serovar Heidelberg by broth microdilution method; assay type: functional, Salmonella enterica subsp. enterica serovar Heidelberg
Shigella flexneri = experiment: Antibacterial activity against Shigella flexneri by broth microdilution method; assay type: functional
Aeromonas sobria [19] = experiment: Antibacterial activity against Aeromonas sobria assessed as percent resistant isolates by broth microdilution method; assay type: functional
Escherichia coli [20] = experiment: Antibacterial activity against Escherichia coli by broth microdilution method; assay type: functional
Vibrio cholerae = experiment: Antibacterial activity against Vibrio cholerae by broth microdilution method; assay type: functional
Aeromonas caviae [21] = experiment: Antibacterial activity against Aeromonas caviae assessed as percent resistant isolates by broth microdilution method; assay type: functional
Aeromonas caviae [22] = experiment: Antibacterial activity against Aeromonas caviae assessed as percent susceptible isolates by broth microdilution method; assay type: functional
Escherichia coli [23] = experiment: Antibacterial activity against Escherichia coli assessed as percent resistant isolates by broth microdilution method; assay type: functional
Plesiomonas shigelloides [24] = experiment: Antibacterial activity against Plesiomonas shigelloides assessed as percent resistant isolates by broth microdilution method; assay type: functional
Salmonella enteritidis [25] = experiment: Antibacterial activity against Salmonella enterica serovar Enteritidis by broth microdilution method; assay type: functional, Salmonella enterica subsp. enterica serovar Enteritidis
Aeromonas caviae [26] = experiment: Antibacterial activity against Aeromonas caviae by broth microdilution method; assay type: functional
[27] = Antibacterial activity against Salmonella enterica serovar Choleraesuis by broth microdilution method; assay type: functional, Salmonella enterica subsp. enterica serovar Choleraesuis
Aeromonas sobria [28] = experiment: Antibacterial activity against Aeromonas sobria by broth microdilution method; assay type: functional
[29] = Antibacterial activity against Salmonella enterica serovar Newport by broth microdilution method; assay type: functional, Salmonella enterica subsp. enterica serovar Newport
Yersinia enterocolitica [30] = experiment: Antibacterial activity against Yersinia enterocolitica assessed as percent susceptible isolates by broth microdilution method; assay type: functional
Shigella boydii [31] = experiment: Antibacterial activity against Shigella boydii by broth microdilution method; assay type: functional
Salmonella paratyphi [32] = experiment: Antibacterial activity against Salmonella enterica serovar Paratyphi assessed as percent susceptible isolates by broth microdilution method; assay type: functional, Salmonella enterica subsp. enterica serovar Paratyphi A
Yersinia enterocolitica [33] = experiment: Antibacterial activity against Yersinia enterocolitica assessed as percent resistant isolates by broth microdilution method; assay type: functional
Salmonella typhi [34] = experiment: Antibacterial activity against Salmonella enterica serovar Typhi assessed as percent susceptible isolates by broth microdilution method; assay type: functional, Salmonella enterica subsp. enterica serovar Typhi
Plesiomonas shigelloides [35] = experiment: Antibacterial activity against Plesiomonas shigelloides assessed as percent susceptible isolates by broth microdilution method; assay type: functional
Aeromonas veronii [36] = experiment: Antibacterial activity against Aeromonas veronii assessed as percent susceptible isolates by broth microdilution method; assay type: functional
[37] = test system: Yersinia pseudotuberculosis; experiment: Antibacterial activity against Yersinia pseudotuberculosis by broth microdilution method; assay type: functional
Aeromonas veronii [38] = experiment: Antibacterial activity against Aeromonas veronii assessed as percent resistant isolates by broth microdilution method; assay type: functional
Vibrio sp. = experiment: Antibacterial activity against Vibrio sp. by broth microdilution method; assay type: functional
Vibrio alginolyticus = experiment: Antibacterial activity against Vibrio alginolyticus by broth microdilution method; assay type: functional
[39] = Antibacterial activity against Salmonella enterica serovar Choleraesuis assessed as percent susceptible isolates by broth microdilution method; assay type: functional, Salmonella enterica subsp. enterica serovar Choleraesuis
Aeromonas hydrophila [40] = experiment: Antibacterial activity against Aeromonas hydrophila by broth microdilution method; assay type: functional
Campylobacter coli = experiment: Antibacterial activity against Campylobacter coli by broth microdilution method; assay type: functional
Yersinia enterocolitica [41] = experiment: Antibacterial activity against Yersinia enterocolitica by broth microdilution method; assay type: functional
Salmonella typhimurium [42] = experiment: Antibacterial activity against Salmonella enterica serovar Typhimurium by broth microdilution method; assay type: functional, Salmonella enterica subsp. enterica serovar Typhimurium

CCn1cc(C(=O)O)c(=O)c2ccc(C)nc21 [NALIDIXIC ACID]
MIC50 (Aeromonas veronii [1]): ≤ 8 µg/mL
MIC90 (Aeromonas veronii [1]): > 32 µg/mL
Activity (Escherichia coli [2]): 95%
Activity (Aeromonas hydrophila [3]): 81.2%
Activity [4]: 93.5%
MIC (Vibrio vulnificus): ≤ 8 µg/mL
MIC50 (Vibrio vulnificus): ≤ 8 µg/mL
MIC90 (Vibrio vulnificus): ≤ 8 µg/mL
MIC50 [5]: ≤ 8 µg/mL
MIC90 [5]: > 32 µg/mL
Activity (Shigella dysenteriae [6]): 97%
Activity (Salmonella enteritidis [7]): 84.2%
Activity (Shigella sonnei [8]): 3%
MIC50 (Salmonella typhi [9]): ≤ 8 µg/mL
MIC90 (Salmonella typhi [9]): > 32 µg/mL
MIC50 (Campylobacter jejuni): ≤ 8 µg/mL
MIC90 (Campylobacter jejuni): > 32 µg/mL
Activity (Aeromonas hydrophila [10]): 18.8%
MIC50 (Shigella dysenteriae [11]): ≤ 8 µg/mL
MIC90 (Shigella dysenteriae [11]): ≤ 8 µg/mL
MIC (Plesiomonas shigelloides [12]): ≤ 8 µg/mL
MIC50 (Plesiomonas shigelloides [12]): ≤ 8 µg/mL
MIC (Vibrio parahaemolyticus): ≤ 8 µg/mL
MIC50 (Vibrio parahaemolyticus): ≤ 8 µg/mL
MIC90 (Vibrio parahaemolyticus): ≤ 8 µg/mL
MIC (Vibrio fluvialis): ≤ 8 µg/mL
MIC50 (Vibrio fluvialis): ≤ 8 µg/mL
MIC90 (Vibrio fluvialis): ≤ 8 µg/mL
MIC50 (Shigella sonnei [13]): ≤ 8 µg/mL
MIC90 (Shigella sonnei [13]): ≤ 8 µg/mL
MIC50 (Salmonella paratyphi [14]): ≤ 8 µg/mL
MIC90 (Salmonella paratyphi [14]): > 32 µg/mL
Activity (Salmonella typhimurium [15]): 15.8%
Activity (Shigella boydii [16]): 97%
Activity (Aeromonas sobria [17]): 81.2%
MIC50 [18]: ≤ 8 µg/mL
MIC90 [18]: > 32 µg/mL
MIC50 (Shigella flexneri): ≤ 8 µg/mL
MIC90 (Shigella flexneri): ≤ 8 µg/mL
Activity (Aeromonas sobria [19]): 18.8%
MIC50 (Escherichia coli [20]): ≤ 8 µg/mL
MIC90 (Escherichia coli [20]): ≤ 8 µg/mL
MIC (Vibrio cholerae): ≤ 8 µg/mL
MIC50 (Vibrio cholerae): ≤ 8 µg/mL
MIC90 (Vibrio cholerae): ≤ 8 µg/mL
Activity (Aeromonas caviae [21]): 18.8%
Activity (Aeromonas caviae [22]): 81.2%
Activity (Escherichia coli [23]): 5%
Activity (Plesiomonas shigelloides [24]): 0%
MIC50 (Salmonella enteritidis [25]): ≤ 8 µg/mL
MIC90 (Salmonella enteritidis [25]): > 32 µg/mL
MIC50 (Aeromonas caviae [26]): ≤ 8 µg/mL
MIC90 (Aeromonas caviae [26]): > 32 µg/mL
MIC50 [27]: ≤ 8 µg/mL
MIC90 [27]: > 32 µg/mL
MIC50 (Aeromonas sobria [28]): ≤ 8 µg/mL
MIC90 (Aeromonas sobria [28]): > 32 µg/mL
MIC50 [29]: ≤ 8 µg/mL
MIC90 [29]: > 32 µg/mL
Activity (Yersinia enterocolitica [30]): 93.5%
MIC50 (Shigella boydii [31]): ≤ 8 µg/mL
MIC90 (Shigella boydii [31]): ≤ 8 µg/mL
Activity (Salmonella paratyphi [32]): 84.2%
Activity (Yersinia enterocolitica [33]): 6.5%
Activity (Salmonella typhi [34]): 84.2%
Activity (Plesiomonas shigelloides [35]): 100%
Activity (Aeromonas veronii [36]): 81.2%
MIC50 [37]: ≤ 8 µg/mL
MIC90 [37]: ≤ 8 µg/mL
Activity (Aeromonas veronii [38]): 18.8%
MIC (Vibrio sp.): ≤ 8 µg/mL
MIC50 (Vibrio sp.): ≤ 8 µg/mL
MIC90 (Vibrio sp.): ≤ 8 µg/mL
MIC (Vibrio alginolyticus): ≤ 8 µg/mL
MIC50 (Vibrio alginolyticus): ≤ 8 µg/mL
MIC90 (Vibrio alginolyticus): ≤ 8 µg/mL
Activity [39]: 84.2%
MIC50 (Aeromonas hydrophila [40]): ≤ 8 µg/mL
MIC90 (Aeromonas hydrophila [40]): > 32 µg/mL
MIC50 (Campylobacter coli): ≤ 8 µg/mL
MIC90 (Campylobacter coli): > 32 µg/mL
MIC50 (Yersinia enterocolitica [41]): ≤ 8 µg/mL
MIC90 (Yersinia enterocolitica [41]): ≤ 8 µg/mL
MIC50 (Salmonella typhimurium [42]): ≤ 8 µg/mL
MIC90 (Salmonella typhimurium [42]): > 32 µg/mL
